# Measurements published in patent US8476197B2, “Aminopropenoates as fungicides” (priority 2009, dated 2013).
# Marks after values point to notes of the source that are not given here.
# Settings: pH 2.3
row,Log P,SMILES
1,2.74,CC(C)C(C)NC(=C(C#N)C(=O)NC1CC1)c1cccnc1Cl (stereo not drawn) [Compound 1451]
2,3.22,CC(C)C(C)NC(=C(C#N)C(=O)On1nnc2ccccc21)c1cccnc1Cl (stereo not drawn) [Compound 990]
3,4.07,CCOC(=O)C(C#N)=C(NC(C)C(C)C)c1cccnc1-c1cccc(Cl)c1 (stereo not drawn) [Compound 1568]

row,SMILES,Log P
1,CCCNC(=O)C(C#N)=C(NC(C)C(C)C)c1cccnc1Cl (stereo not drawn) [Compound 988],3.24

# Same assay, conditions: pH 2.7
row,SMILES,Log P
1,COC(=O)C(C#N)=C(Nc1ccc(Cl)cc1)c1sc(C)nc1C(F)(F)F [Compound 517],3.55^[a]
2,CCOC(=O)C(C#N)=C(NC(C)c1ccc(F)cc1)c1ccsc1Br (racemic) [Compound 531],3.89^[a]
3,CCOC(=O)C(C#N)=C(NC1CC(C)C1)c1cccnc1Cl (stereo not drawn) [Compound 1073],3.3^[a]
4,COC(=O)C(C#N)=C(NC(C)(C)C#Cc1ccc(C#N)cc1)c1sc(C)nc1C(F)(F)F [Compound 1092],3.78^[a]
5,COC(=O)C(C#N)=C(NC(C)C(C)C)c1sc(C)nc1C(F)(F)F (stereo not drawn) [Compound 948],3.63^[a]
6,CCOC(=O)C(C#N)=C(NC(C)c1nccs1)c1cn(C)cc1C(F)(F)F (racemic) [Compound 271],2.97^[a]
7,CCOC(=O)C(C#N)=C(NC(C)CSc1ccc(Cl)cc1)c1cccnc1Cl (stereo not drawn) [Compound 1156],4.08^[a]
8,CCOC(=O)C(C#N)=C(NC(C)Cc1c[nH]c2ccccc12)c1ncc(C(F)(F)F)cc1Cl (racemic) [Compound 41],4.07^[a]
9,CCOC(=O)C(C#N)=C(Nc1ccc(OC(F)F)cc1)c1sccc1Br [Compound 468],3.73^[a]
10,CCOC(=O)C(C#N)=C(NC(C)c1ccccn1)c1ccncc1F (mixture of isomers) [Compound 300],2.28^[a]
11,CCOC(=O)C(C#N)=C(NC(C)(C)C#Cc1ccc(C)cc1)c1cccnc1Cl [Compound 1268],4.41^[a]
12,CC#CC(C)NC(=C(C#N)C(=O)NCC)c1cccnc1Cl (stereo not drawn) [Compound 1119],2.5^[a]
13,CCOC(=O)C(C#N)=C(NC(C)(C)C(C)(C)C)c1sccc1Br [Compound 755],4.67^[a]
14,COC(=O)C(C#N)=C(Nc1ccc(C(C)C)cc1)c1sc(C)nc1C(F)(F)F [Compound 487],4.14^[a]
15,CCNC(=O)C(C)NC(=C(C#N)C(=O)OCC)c1cccnc1Cl (stereo not drawn) [Compound 728],2.1^[a]
16,CCOC(=O)C(C#N)=C(NC(C)C(N)=O)c1ccncc1Cl (stereo not drawn) [Compound 722],1.65^[a]
17,C#CC(C)(C)NC(=C(C#N)C(=O)OCC)c1cc(Cl)sc1Cl [Compound 1033],3.99^[a]

row,SMILES,Log P
1,CC(C)C(C)NC(=C(C#N)C(=O)NC1CCC1C)c1cccnc1Cl (stereo not drawn) [Compound 1511],4.01^[a]
2,CCOC(=O)C(C#N)=C(NC(C)CC)c1cccnc1C(F)F (racemic) [Compound 842],2.87^[a]
3,COC(=O)C(C#N)=C(NC1CCCC2CCCCC21)c1cccnc1Cl (stereo not drawn) [Compound 1084],4.25^[a]
4,CCOC(=O)C(C#N)=C(NCc1nc(C(F)(F)F)cs1)c1sccc1C(F)(F)F [Compound 177],3.51^[a]
5,COC(=O)C(C#N)=C(NCc1ccccn1)c1cn(C)nc1C(F)F [Compound 58],1.63^[a]
6,CCOC(=O)C(C#N)=C(NC(C)C(N)=O)c1sc(C)nc1C(F)(F)F (stereo not drawn) [Compound 641],1.96^[a]
7,CCOC(=O)C(C#N)=C(NC(C)c1cccc2ccccc12)c1nc(Cl)ccc1Cl (stereo not drawn) [Compound 1],4.4^[a]
8,CCOC(=O)C(C#N)=C(NC(C)(C)C#Cc1ccc(C#N)cc1)c1ccsc1Br [Compound 1094],4.21^[a]
9,CCOC(=O)C(C#N)=C(NC(C)c1nccs1)c1ccnc(Cl)c1Cl (mixture of isomers) [Compound 291],2.96^[a]
10,CCOC(=O)C(C#N)=C(NC(C)C1CC1)c1ccncc1C(F)(F)F (racemic) [Compound 905],3.2^[a]
11,COC(=O)C(C#N)=C(NC1CCC(C(C)(C)C)CC1)c1cccnc1Cl (stereo not drawn) [Compound 1077],4.51^[a]
12,CCOC(=O)C(C#N)=C(Nc1cccc(Cl)c1)c1cn(C)nc1C(F)F [Compound 477],3.21^[a]
13,C#CC(C)(C)NC(=C(C#N)C(=O)OCC)c1cn(C)cc1C(F)(F)F [Compound 1038],3.21^[a]
14,CCOC(=O)C(C#N)=C(NC1CCCCC1)c1cccnc1Cl [Compound 761],3.55^[a]
15,CCOC(=O)C(C#N)=C(NC(C)c1ccccn1)c1ccncc1Br (mixture of isomers) [Compound 299],2.5^[a]
16,CCOC(=O)C(C#N)=C(NC(c1cc2ccccc2s1)C(F)(F)F)c1c(C)nn(C)c1Cl (racemic) [Compound 137],4.46^[a]
17,CCOC(=O)C(C#N)=C(NCc1ncc(C)s1)c1sc(C)nc1C(F)(F)F [Compound 219],3^[a]

# Other lines, results leading:
row,Log P,SMILES
1,3.5^[a],CCOC(=O)C(C#N)=C(NC(C)Cc1ccccc1)c1cccnc1Cl (stereo not drawn) [Compound 1643]
2,1.01^[a],CC(NC(=C(C#N)C(=O)O)c1cccnc1Cl)c1nccs1 (stereo not drawn) [Compound 1479]
3,3.83^[a],CCOC(=O)C(C#N)=C(NC(C)CON=C(C)c1ccccc1)c1cn(C)nc1C(F)F (stereo not drawn) [Compound 1112]
4,2.62^[a],CCOC(=O)C(C#N)=C(NC(C)c1nccs1)c1cn(C)nc1C(C)C (stereo not drawn) [Compound 1214]
5,3.96^[a],CCOC(=O)C(C#N)=C(NC(C)c1c(C)cccc1C)c1cccnc1Cl (stereo not drawn) [Compound 1534]
6,2.46^[a],CCOC(=O)C(C#N)=C(NC(C)c1nccs1)c1cnn(C)c1C(F)F (stereo not drawn) [Compound 1302]
7,4.54^[a],CCOC(=O)C(C#N)=C(NC(C)c1ccc(Cl)cc1)c1sc(Cl)nc1Cl (racemic) [Compound 526]
8,1.91^[a],CCOC(=O)C(C#N)=C(NC(C)C(N)=O)c1ccsc1I (stereo not drawn) [Compound 647]
9,2.43^[a],CCOC(=O)C(C#N)=C(NCc1nccs1)c1cn(C)nc1C(F)(F)F [Compound 138]
10,3.53^[a],CCCC(NC(=C(C#N)C(=O)OCC)c1cn(C)nc1C(F)F)C(F)(F)F (stereo not drawn) [Compound 1424]
11,3.78^[a],CCOC(=O)C(C#N)=C(NC(C)COc1ccccc1Cl)c1cccnc1Cl (stereo not drawn) [Compound 1164]
12,4.47^[a],CCOC(=O)C(C#N)=C(NC(C)c1ccc(Cl)cc1)c1sccc1C(F)(F)F (stereo not drawn) [Compound 368]
13,3.95^[a],CCOC(=O)C(C#N)=C(NC(C)c1ccc(Cl)cc1)c1cn(C)nc1C(F)(F)F (stereo not drawn) [Compound 430]
14,3.69^[a],CCOCC(NC(=C(C#N)C(=O)OCC)c1cccnc1Cl)C(C)C (stereo not drawn) [Compound 1431]
15,3.8^[a],CCOC(=O)C(C#N)=C(NC(C)C(C)CC)c1cn(C)nc1C(Cl)Cl (stereo not drawn) [Compound 1577]
16,3.44^[a],CC#CC(C)NC(=C(C#N)C(=O)OCC)c1ccnc(Cl)c1Cl (racemic) [Compound 1386]
17,3.23^[a],CCOC(=O)C(C#N)=C(Nc1ccc(Cl)cc1)c1cn(C)nc1C(F)F [Compound 475]
18,2.25^[a],CCOC(=O)C(C#N)=C(NC(C)C(=O)NC)c1sccc1C(F)(F)F (stereo not drawn) [Compound 639]
19,4.29^[a],CCOC(=O)C(C#N)=C(NC(C)CC(C)C)c1sc(C)nc1C(F)(F)F (racemic) [Compound 784]
20,0.84^[a],CCOC(=O)C(C#N)=C(NCC(C)N)c1cn(C)nc1C(F)F (racemic) [Compound 579]

row,Log P,SMILES
1,3.76^[a],CCOC(=O)C(C#N)=C(Nc1ccc(N(C)C)cc1)c1ccsc1Br [Compound 540]
2,2.84^[a],CCOC(=O)C(C#N)=C(NC(C)(C)CSC)c1cn(C)nc1C(F)F [Compound 703]
3,3.39^[a],CC#CC1(NC(=C(C#N)C(=O)OCC)c2cn(C)nc2C(F)F)CCCC1 [Compound 1143]
4,1.3^[a],CCOC(=O)C(C#N)=C(NC(C)CN1CCOCC1)c1cccnc1Cl (racemic) [Compound 274]
5,2.43^[a],CCOC(=O)C(C#N)=C(NC(C(=O)NC)c1ccccc1)c1cccnc1Cl (stereo not drawn) [Compound 1087]
6,3.48^[a],CCOC(=O)C(C#N)=C(Nc1ccccc1SC)c1cn(C)nc1C(F)(F)F [Compound 431]
7,4.46^[a],CCOC(=O)C(C#N)=C(NC(C)CC(C)C)c1sccc1Br (racemic) [Compound 783]
8,4.14^[a],CCOC(=O)C(C#N)=C(NC(C)c1ccc(F)cc1)c1sccc1C(F)(F)F (mixture of isomers) [Compound 438]
9,2.76^[a],CCOC(=O)C(C#N)=C(NC(C#N)C(C)C)c1cn(C)nc1C(F)F (stereo not drawn) [Compound 1422]
10,2.36^[a],CCOC(=O)C(C#N)=C(NCc1ccccn1)c1cn(C)nc1C(F)(F)F [Compound 139]
11,1.97^[a],CCOC(=O)C(C#N)=C(NC(C)C(N)=O)c1nc(Cl)ccc1Cl (stereo not drawn) [Compound 698]
12,3.1^[a],CCOC(=O)C(C#N)=C(NC(C)c1nccs1)c1ccsc1Br (stereo not drawn) [Compound 105]
13,3.17^[a],CCOC(=O)C(C#N)=C(NC(C)CC)c1cnccc1C(F)(F)F (racemic) [Compound 843]
14,2.71^[a],CCOC(=O)C(C#N)=C(NC(C)C1CCCO1)c1cccnc1Cl (stereo not drawn) [Compound 1531]
15,3.42^[a],CCOC(=O)C(C#N)=C(NC(C)c1nc(C)cs1)c1sc(C)nc1C(F)(F)F (stereo not drawn) [Compound 194]
16,4.81^[a],CCOC(=O)C(C#N)=C(NC(C)C(C)C)c1ccnc(CC(C)C)c1Cl (stereo not drawn) [Compound 1402]
17,5.05^[a],CCCCCC(C)NC(=C(C#N)C(=O)OCC)c1sccc1C(F)(F)F (stereo not drawn) [Compound 847]
18,4.56^[a],CCOC(=O)C(C#N)=C(NC(C)c1ccc(Cl)cc1)c1ncc(C(F)(F)F)cc1Cl (stereo not drawn) [Compound 351]
19,3.67^[a],CCOC(=O)C(C#N)=C(NC(C)CC)c1nc(Cl)ccc1Cl (racemic) [Compound 837]

# Same assay, conditions: pH 7.5
row,SMILES,Log P
1,CC(C)C(C)NC(=C(C#N)C(=O)NC1CC1)c1cccnc1Cl (stereo not drawn) [Compound 1451],2.76
2,CC(C)C(C)NC(=C(C#N)C(=O)On1nnc2ccccc21)c1cccnc1Cl (stereo not drawn) [Compound 990],3.21
3,CCOC(=O)C(C#N)=C(NC(C)c1nccs1)c1ccc(Cl)nc1Cl (stereo not drawn) [Compound 72],3.01
4,CCCNC(=O)C(C#N)=C(NC(C)C(C)C)c1cccnc1Cl (stereo not drawn) [Compound 988],3.22

# Continued, values first:
row,Log P,SMILES
1,2.27,CCOC(=O)C(C#N)=C(NC(CC)C(=O)OC)c1cccnc1Cl (stereo not drawn) [Compound 582]
2,4.09,CCOC(=O)C(C#N)=C(NC(C)C(C)C)c1cccnc1-c1cccc(Cl)c1 (stereo not drawn) [Compound 1568]
3,4.62,CCOC(=O)C(C#N)=C(NC(C)CCc1c(Cl)cccc1Cl)c1cccnc1Cl (mixture of isomers) [Compound 429]
